Measured values published in BindingDB's records for doi:10.1016/S0960-894X(96)00606-3 (1997).

What follows are compounds tested against T1, C5a anaphylatoxin chemotactic receptor 1 (Homo sapiens, UniProt P21730) (assay: ChEBML_41457).
T1 sequence (P21730 whole entry): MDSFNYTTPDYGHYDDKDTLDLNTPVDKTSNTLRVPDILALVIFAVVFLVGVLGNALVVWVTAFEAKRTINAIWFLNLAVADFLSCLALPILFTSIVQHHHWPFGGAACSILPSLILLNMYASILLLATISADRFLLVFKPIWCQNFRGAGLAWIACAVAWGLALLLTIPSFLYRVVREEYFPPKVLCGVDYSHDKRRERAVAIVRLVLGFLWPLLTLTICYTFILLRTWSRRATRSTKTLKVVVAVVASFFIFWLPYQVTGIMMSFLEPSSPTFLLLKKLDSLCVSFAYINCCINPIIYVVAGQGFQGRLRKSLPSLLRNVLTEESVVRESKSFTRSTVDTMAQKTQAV
Text: Tested for its ability to compete with [125I]C5a for binding to C5a anaphylatoxin chemotactic receptor of human neutrophil membrane preparations

N=C(N)NCCCc1[nH]c(=O)n([C@H](Cc2ccc(O)cc2)C(=O)N2CCC3(CCc4ccccc43)CC2)c1O [5-[3-amino(imino)methylaminopropyl]-3-[1-(4-hydroxybenzyl)-2-oxo-2-spiro[2,3-dihydro-1H-indene-1,4'-(hexahydropyridine)]-1-yl-(1R)-ethyl]-(5R)-tetrahydro-1H-2,4-imidazoledione] and N=C(N)NCCCc1[nH]c(=O)n(C(CCc2ccccc2)C(=O)N2CCC3(CCc4ccccc43)CC2)c1O [5-[3-amino(imino)methylaminopropyl]-3-[3-phenyl-1-spiro[2,3-dihydro-1H-indene-1,4'-(hexahydropyridine)]-1-ylcarbonylpropyl]-(5R)-tetrahydro-1H-2,4-imidazoledione] are within 1.5-fold of each other in IC50: 4 µM for the first, 3 µM for the second.

NCCCCc1[nH]c(=O)n([C@H](CC2CCCCC2)C(=O)N2CCC3(CCc4ccccc43)CC2)c1O [5-(4-aminobutyl)-3-[1-cyclohexylmethyl-2-oxo-2-spiro[2,3-dihydro-1H-indene-1,4'-(hexahydropyridine)]-1-yl-(1R)-ethyl]-(5R)-tetrahydro-1H-2,4-imidazoledione] and CCC[C@H](C(=O)N1CCC2(CCc3ccccc32)CC1)n1c(O)c(CCCNC(=N)N)[nH]c1=O [5-[3-amino(imino)methylaminopropyl]-3-[1-spiro[2,3-dihydro-1H-indene-1,4'-(hexahydropyridine)]-1-ylcarbonyl-(1R)-butyl]-(5R)-tetrahydro-1H-2,4-imidazoledione] are within 1.5-fold of each other in IC50: 4 µM for the first, 3 µM for the second.
